Source: ChEMBL document CHEMBL1151440, “Safety and pharmacokinetics of GSK364735, a human immunodeficiency virus type 1 integrase inhibitor, following single and repeated administration in healthy adult subjects” (Antimicrob Agents Chemother, 2007)

How the values were obtained:
[1] = Terminal elimination half life in human at 400 mg administered with fat meal daily for 8 days measured on day 1; type: ADME, organism-based; conditions: in vivo, read-out: beta t1/2 (converted)
[2] = test system: Human immunodeficiency virus 1; experiment: Antiviral activity against HIV1 BaL in peripheral blood lymphocytes in presence of 100% human serum; type: functional, organism-based; conditions: Human immunodeficiency virus 1, BaL
[3] = test system: Canis familiaris; experiment: Clearance in iv dosed dog assessed as liver blood flow; type: ADME, organism-based, Canis lupus familiaris; conditions: in vivo
[4] = Terminal elimination half life in iv dosed dog; type: ADME, organism-based, Canis lupus familiaris; conditions: in vivo, read-out: beta t1/2 (converted)
[5] = Oral bioavailability in dog; type: ADME, organism-based, Canis lupus familiaris; conditions: in vivo
[6] = Plasma concentration in human at 50 mg administered with fat meal every 12 hrs for 8 days measured on day 1 after 12 hrs of first dose; type: ADME, organism-based
[7] = Plasma concentration in human at 100 mg administered with fat meal every 12 hrs for 8 days measured on day 1 after 12 hrs of first dose; type: ADME, organism-based
[8] = Plasma concentration in human at 200 mg administered with fat meal every 8 hrs for 8 days measured on day 1 after 12 hrs of first dose; type: ADME, organism-based
[9] = Apparent oral clearance in human at 50 mg administered with fat meal every 12 hrs for 8 days measured on day 1; type: ADME, organism-based; conditions: in vivo
[10] = Apparent oral clearance in human at 400 mg administered with fat meal daily for 8 days measured on day 1; type: ADME, organism-based; conditions: in vivo
[11] = Apparent oral clearance in human at 200 mg administered with fat meal every 8 hrs for 8 days measured on day 1; type: ADME, organism-based; conditions: in vivo
[12] = AUC (0 to 8 hrs) in human at 200 mg administered with fat meal every 8 hrs for 8 days measured on day 8; type: ADME, organism-based; design: time < 8 hr, dose 200 mg; conditions: plasma
[13] = Cmax in human at 200 mg administered with fat meal every 12 hrs for 8 days measured on day 8; type: ADME, organism-based; design: dose 200 mg; conditions: in vivo
[14] = Cmax in human at 400 mg administered with fat meal daily for 8 days measured on day 8; type: ADME, organism-based; design: dose 400 mg; conditions: in vivo
[15] = Tmax in human at 400 mg administered with fat meal daily for 8 days measured on day 8; type: ADME, organism-based; conditions: in vivo
[16] = Terminal elimination half life in human at 50 mg administered with fat meal every 12 hrs for 8 days measured on day 8; type: ADME, organism-based; conditions: in vivo, read-out: beta t1/2 (converted)
[17] = Terminal elimination half life in human at 100 mg administered with fat meal every 12 hrs for 8 days measured on day 8; type: ADME, organism-based; conditions: in vivo, read-out: beta t1/2 (converted)
[18] = Terminal elimination half life in human at 400 mg administered with fat meal daily for 8 days measured on day 8; type: ADME, organism-based; conditions: in vivo, read-out: beta t1/2 (converted)
[19] = test system: Homo sapiens; experiment: Toxicity in human assessed as changes in hematology at 50 to 200 mg administered as single dose; type: organism-based; conditions: in vivo
[20] = test system: Homo sapiens; experiment: Toxicity in human assessed as changes in continuous telemetry monitoring at 50 to 200 mg administered as single dose; type: organism-based; conditions: in vivo
[21] = test system: Homo sapiens; experiment: Toxicity in human assessed as adverse effect at 50 mg administered every 12 hrs for 8 days; type: organism-based; conditions: in vivo
[22] = test system: Homo sapiens; experiment: Toxicity in human assessed as dizziness at 50 mg administered every 12 hrs for 8 days; type: organism-based; conditions: in vivo
[23] = test system: Homo sapiens; experiment: Toxicity in human assessed as adverse effect at 100 mg administered every 12 hrs for 8 days; type: organism-based; conditions: in vivo
[24] = test system: Homo sapiens; experiment: Toxicity in human assessed as adverse effect at 200 mg administered every 12 hrs for 8 days; type: organism-based; conditions: in vivo
[25] = test system: Homo sapiens; experiment: Toxicity in human assessed as headache at 200 mg administered every 12 hrs for 8 days; type: organism-based; conditions: in vivo
[26] = test system: Homo sapiens; experiment: Toxicity in human assessed as dizziness at 200 mg administered every 12 hrs for 8 days; type: organism-based; conditions: in vivo
[27] = species on record: Homo sapiens; experiment: Toxicity in human assessed as adverse effect at 400 mg daily for 8 days; type: organism-based; conditions: in vivo, 192 h
[28] = test system: Homo sapiens; experiment: Toxicity in human assessed as adverse effect at 200 mg administered every 8 hrs for 8 days; type: organism-based; conditions: in vivo
[29] = test system: Homo sapiens; experiment: Toxicity in human assessed as dizziness at 200 mg administered every 8 hrs for 8 days; type: organism-based; conditions: in vivo
[30] = test system: Homo sapiens; experiment: Toxicity in human assessed as changes in hematology at 50 to 400 mg after sequential repeated administration for 8 days; type: organism-based; conditions: in vivo, 192 h
[31] = test system: Homo sapiens; experiment: Toxicity in human assessed as changes in vital sign at 50 to 400 mg after sequential repeated administration for 8 days; type: organism-based; conditions: in vivo, 192 h
[32] = test system: Homo sapiens; experiment: Toxicity in human assessed as changes in continuous telemetry monitoring at 50 to 400 mg after sequential repeated administration for 8 days; type: organism-based; conditions: in vivo, 192 h
[33] = AUC (0 to infinity) in fasted human at 50 mg administered as single dose; type: ADME, organism-based; design: dose 50 mg, time infinity; conditions: plasma
[34] = AUC (0 to infinity) in human at 400 mg administered with fat meal as single dose; type: ADME, organism-based; design: dose 400 mg, time infinity; conditions: plasma
[35] = Apparent oral clearance in human at 200 mg administered with fat meal every 12 hrs for 8 days measured on day 8; type: ADME, organism-based; conditions: in vivo
[36] = Apparent oral clearance in human at 200 mg administered with fat meal every 8 hrs for 8 days measured on day 8; type: ADME, organism-based; conditions: in vivo
[37] = Cmax in fasted human at 100 mg administered as single dose; type: ADME, organism-based; design: dose 100 mg; conditions: in vivo
[38] = Cmax in fasted human at 200 mg administered as single dose; type: ADME, organism-based; design: dose 200 mg; conditions: in vivo
[39] = Tmax in fasted human at 50 mg administered as single dose; type: ADME, organism-based; conditions: in vivo
[40] = Tmax in fasted human at 200 mg administered as single dose; type: ADME, organism-based; conditions: in vivo
[41] = Tmax in fasted human at 200 mg administered with fat meal as single dose; type: ADME, organism-based; conditions: in vivo
[42] = Terminal elimination half life in fasted human at 50 mg administered as single dose; type: ADME, organism-based; conditions: in vivo, read-out: beta t1/2 (converted)
[43] = Terminal elimination half life in fasted human at 200 mg administered as single dose; type: ADME, organism-based; conditions: in vivo, read-out: beta t1/2 (converted)
[44] = Terminal elimination half life in fasted human at 400 mg administered as single dose; type: ADME, organism-based; conditions: in vivo, read-out: beta t1/2 (converted)
[45] = Terminal elimination half life in human at 400 mg administered with fat meal as single dose; type: ADME, organism-based; conditions: in vivo, read-out: beta t1/2 (converted)
[46] = Apparent oral clearance in fasted human at 50 mg administered as single dose; type: ADME, organism-based; conditions: in vivo
[47] = Apparent oral clearance in fasted human at 200 mg administered as single dose; type: ADME, organism-based; conditions: in vivo
[48] = Apparent oral clearance in human at 200 mg administered with fat meal as single dose; type: ADME, organism-based; conditions: in vivo
[49] = AUC (0 to infinity) in human at 50 mg administered with fat meal every 12 hrs for 8 days measured on day 1; type: ADME, organism-based; design: dose 50 mg, time infinity; conditions: plasma
[50] = Apparent oral clearance in human at 50 mg administered with fat meal every 12 hrs for 8 days measured on day 8; type: ADME, organism-based; conditions: in vivo
[51] = AUC (0 to infinity) in human at 200 mg administered with fat meal every 12 hrs for 8 days measured on day 1; type: ADME, organism-based; design: dose 200 mg, time infinity; conditions: plasma
[52] = AUC (0 to infinity) in human at 200 mg administered with fat meal every 8 hrs for 8 days measured on day 1; type: ADME, organism-based; design: dose 200 mg, time infinity; conditions: plasma
[53] = Cmax in human at 100 mg administered with fat meal every 12 hrs for 8 days measured on day 1; type: ADME, organism-based; design: dose 100 mg; conditions: in vivo
[54] = Tmax in human at 50 mg administered with fat meal every 12 hrs for 8 days measured on day 1; type: ADME, organism-based; conditions: in vivo
[55] = Tmax in human at 100 mg administered with fat meal every 12 hrs for 8 days measured on day 1; type: ADME, organism-based; conditions: in vivo
[56] = Tmax in human at 400 mg administered with fat meal daily for 8 days measured on day 1; type: ADME, organism-based; conditions: in vivo
[57] = Tmax in human at 200 mg administered with fat meal every 8 hrs for 8 days measured on day 1; type: ADME, organism-based; conditions: in vivo
[58] = Terminal elimination half life in human at 50 mg administered with fat meal every 12 hrs for 8 days measured on day 1; type: ADME, organism-based; conditions: in vivo, read-out: beta t1/2 (converted)

## Cn1c(=O)c(C(=O)NCCO)c(O)c2ncc(Cc3ccc(F)cc3)cc21 [GSK-364735]
[1]
  half-life: 246 min
[2]
  IC50: 42 nM
  IC90: 168 nM
[3]
  QH: 27.8%
[4]
  half-life: 90 min
[5]
  bioavailability: 6%
[6]
  concentration at 12 h: 93 ng/mL
[7]
  concentration at 12 h: 160 ng/mL
[8]
  concentration at 12 h: 130 ng/mL
[9]
  CL/F: 217 mL/min
[10]
  CL/F: 433 mL/min
[11]
  CL/F: 567 mL/min
[12]
  AUC at 8 h: 4900 ng·h/mL
[13]
  Cmax: 1600 ng/mL
[14]
  Cmax: 2100 ng/mL
[15]
  Tmax: 4 h
[16]
  half-life: 222 min
[17]
  half-life: 252 min
[18]
  half-life: 264 min
[19]
  Activity: Non-toxic
[20]
  Activity: Non-toxic
[21]
  Activity: 25%
[22]
  Activity: Non-toxic
[23]
  Activity: 38%
[24]
  Activity: 25%
[25]
  Activity: 13%
[26]
  Activity: Non-toxic
[27]
  Activity: Non-toxic
[28]
  Activity: 63%
[29]
  Activity: 13%
[30]
  Activity: Non-toxic
[31]
  Activity: Non-toxic
[32]
  Activity: Non-toxic
[33]
  AUC(0-inf): 3200 ng·h/mL
[34]
  AUC(0-inf): 8500 ng·h/mL
[35]
  CL/F: 350 mL/min
[36]
  CL/F: 683 mL/min
[37]
  Cmax: 1000 ng/mL
[38]
  Cmax: 1100 ng/mL
[39]
  Tmax: 1.5 h
[40]
  Tmax: 2.5 h
[41]
  Tmax: 4 h
[42]
  half-life: 186 min
[43]
  half-life: 318 min
[44]
  half-life: 396 min
[45]
  half-life: 348 min
[46]
  CL/F: 267 mL/min
[47]
  CL/F: 600 mL/min
[48]
  CL/F: 317 mL/min
[49]
  AUC(0-inf): 4000 ng·h/mL
[50]
  CL/F: 150 mL/min
[51]
  AUC(0-inf): 9200 ng·h/mL
[52]
  AUC(0-inf): 5900 ng·h/mL
[53]
  Cmax: 2500 ng/mL
[54]
  Tmax: 5.5 h
[55]
  Tmax: 3.25 h
[56]
  Tmax: 5 h
[57]
  Tmax: 3.75 h
[58]
  half-life: 156 min
